Data published in patent US20070249607A1, “NK-1 AND SEROTONIN TRANSPORTER INHIBITORS” (Bristol-Myers Squibb Company, priority 2006, published 2007).
Like-named read-outs stand apart in the source and are kept apart here. Each block holds one compound with its values, some of them ahead of it.

Assays:
[1] = target: T1, human serotonin transporters (Homo sapiens, UniProt P31645); assay: Serotonin transporter binding assay ([3H]-citalopram competition, HEK-hSERT cell membranes); details: HEK-hSERT membranes, [3H]-citalopram displacement, read-out: SERT IC50
T1 construct: expressed in transfected cells
Experimental: Serotonin transporter binding assay. HEK-293 cells that stably express human serotonin transporters (HEK-hSERT cells) were grown at 37° C. in 5% CO2 as a monolayer in medium consisting of EMEM supplemented with 10% fetal bovine serum and G418 sulfate (500 μg/ml). To prepare membranes for radioligand binding experiments, cells were rinsed twice with phosphate-buffered saline (138 mM NaCl, 4.1 mM KCl, 5.1 mM Na2PO4, 1.5 mM KH2PO4, 11.1 mM glucose, pH 7.4). Cells were transferred from plates to polypropylene tubes (16×100 mm), centrifuged at 1,200×g for 5 min and were frozen at −80° C. until assay. Following centrifugation, pellets were resuspended by homogenization in buffer consisting of 50 mM Tris (pH 7.7 at 25° C.), 120 mM NaCl and 5 mM KCl and then centrifuged at 32,000×g for 10 min. Following centrifugation, supernatants were discarded and pellets were resuspended in buffer consisting of 50 mM Tris (pH 7.4 at 25° C.), 150 mM NaCl and 5 mM KCl. Membrane homogenates (200 μl/plate) were incubated with 1 nM [^3H]-citalopram (specific activity=85 Ci/mmol) and increasing concentrations of test compounds for 1 hr at 25° C. in a total volume of 250 μl. The assay buffer consisted of 50 mM Tris (pH 7.4 at 25° C.), 120 mM NaCl and 5 mM KCl (pH 7.4 with conc. HCl). Plates were incubated for 1 hr at 25° C., then filtered through 0.5% PEI treated Whatman GF/B filters using a Brandel cell harvester. Filters were washed three times with 3 ml of ice-cold tris wash buffer. Non-specific binding was defined with 10 μM fluoxetine. Amount of radioligand bound in the presence and absence of competitor was analyzed by plotting (-)log drug concentration versus the amount of radioligand specifically bound. The midpoint of the displacement curve (IC50, nM), signifies the potency. Ki values can be calculated using the method of Cheng and Prusoff (Cheng and Prusoff, BiochemicalPharmacology, Vol 22, pp. 3099-3108, Pergamon Press (1973)).

[2] = target: T2, neurokinin-1 (NK-1) receptor (Homo sapiens, UniProt P25103); assay: NK-1 Binding assay ([125I] Substance P competition, U373 cell membranes)
T2 construct: a human glioblastoma-astrocytoma cell line that endogenously expresses the neurokinin-1 (NK-1) receptor; endogenous in cells; host or cells: U373 human glioblastoma-astrocytoma cells (membranes)
Experimental: NK-1 Binding assay. U373 cells, a human glioblastoma-astrocytoma cell line that endogenously expresses the neurokinin-1 (NK-1) receptor, were grown in a monolayer culture at 37° C. in 5% CO2 and fed with Minimum Essential Medium (MEM) supplemented with 10% fetal bovine serum. Membranes were prepared as follows: Cells were washed twice with ice-cold phosphate-buffered saline (pH 7.4) and then incubated for 5-10 minutes with ice-cold 10 mM Tris buffer (pH 7.4) containing 5 mM EDTA. Cells were removed from plates, homogenized, and centrifuged at 32,000×g for 20 minutes. The resulting supernatant was discarded, and the pellet resuspended by homogenization in 50 mM Tris buffer (pH 7.4) containing 1 mM EDTA and centrifuged at 32,000×g for 20 minutes. The resulting supernatant was discarded, and the pellet resuspended by homogenization in NK-1 binding assay buffer (50 mM Tris-HCL (pH 7.4), 3 mM MnCl2, 200 μg/ml BSA, 5 μg/ml chymostatin, 40 μg/ml bacitracin and 4 μg/ml leupeptin).
On the day of an experiment the membrane preparation was thawed, homogenized and diluted with NK-1 binding assay buffer to the appropriate concentration. […] Substance P, at a concentration of […], and concentrations of drugs ranging from 10000 to 0.01 nM. Samples were incubated for 30 min at 20° C. then filtered through GF/B glass fiber filters (pretreated with 1% polyethyleneimine and 0.3% Triton X-100) using a Brandel cell harvester. The filters were then washed with 10 ml ice cold 50 mM Tris-HCL (pH 7.4) containing 3 mM MgCl2. […] The amount of radioligand bound in the presence and absence of competitor was analyzed by plotting (-)log drug concentration versus the amount of radioligand specifically bound. The midpoint of the displacement curve (IC50, nM), signifies the potency.

[3] = Table 1, U373 membranes, [125I] Substance P displacement, read-out: NK-1 IC50

T2 sequence (P25103 whole entry): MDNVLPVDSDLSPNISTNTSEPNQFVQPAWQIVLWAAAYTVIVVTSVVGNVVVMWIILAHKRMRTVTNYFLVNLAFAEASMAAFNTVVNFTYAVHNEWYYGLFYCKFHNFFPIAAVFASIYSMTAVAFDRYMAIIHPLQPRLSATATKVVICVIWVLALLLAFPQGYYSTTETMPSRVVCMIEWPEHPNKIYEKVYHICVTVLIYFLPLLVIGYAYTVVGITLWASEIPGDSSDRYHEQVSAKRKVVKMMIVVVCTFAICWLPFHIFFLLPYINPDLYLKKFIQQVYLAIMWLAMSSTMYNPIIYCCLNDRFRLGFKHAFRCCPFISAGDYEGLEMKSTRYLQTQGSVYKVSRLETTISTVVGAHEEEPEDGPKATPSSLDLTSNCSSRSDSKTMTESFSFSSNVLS
T1 sequence (P31645 whole entry): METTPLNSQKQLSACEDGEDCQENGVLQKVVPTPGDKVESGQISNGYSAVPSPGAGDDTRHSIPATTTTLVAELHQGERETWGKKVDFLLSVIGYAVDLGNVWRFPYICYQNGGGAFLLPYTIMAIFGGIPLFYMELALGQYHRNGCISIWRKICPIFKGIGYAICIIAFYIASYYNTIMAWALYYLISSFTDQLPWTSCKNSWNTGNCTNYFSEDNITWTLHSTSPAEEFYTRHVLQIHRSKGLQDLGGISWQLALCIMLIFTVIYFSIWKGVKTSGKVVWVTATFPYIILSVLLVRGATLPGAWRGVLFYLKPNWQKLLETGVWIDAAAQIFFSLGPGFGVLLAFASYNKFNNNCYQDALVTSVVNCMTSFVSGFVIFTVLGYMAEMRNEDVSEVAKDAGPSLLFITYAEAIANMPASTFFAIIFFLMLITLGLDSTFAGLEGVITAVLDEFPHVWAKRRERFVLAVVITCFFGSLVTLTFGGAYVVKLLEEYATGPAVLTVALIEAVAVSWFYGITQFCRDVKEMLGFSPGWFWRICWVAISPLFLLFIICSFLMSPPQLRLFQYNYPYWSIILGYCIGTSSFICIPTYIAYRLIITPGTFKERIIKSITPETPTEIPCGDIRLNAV

IC50 ([1]; Table 1): 0.01 to 100 nM
IC50 [2, 3]: 100 to 300 nM
Structure (SMILES): FC(F)(F)c1cc(COCC2(c3ccccc3)CCNCC2)cc(-c2cccc3cccnc23)c1

IC50 ([1]; Table 1): 0.01 to 100 nM
IC50 [2, 3]: 100 to 300 nM
Structure (SMILES): OCc1cccc(-c2cc(COCC3(c4ccccc4)CCNCC3)cc(C(F)(F)F)c2)c1

IC50 ([1]; Table 1): 0.01 to 100 nM
IC50 [2, 3]: 0.01 to 100 nM
Structure (SMILES): Fc1cc(F)cc(-c2cc(COCC3(c4ccccc4)CCNCC3)cc(C(F)(F)F)c2)c1

IC50 ([1]; Table 1): 0.01 to 100 nM
IC50 [2, 3]: 100 to 300 nM
Structure (SMILES): CSc1ccccc1-c1cc(COCC2(c3ccccc3)CCNCC2)cc(C(F)(F)F)c1

IC50 ([1]; Table 1): > 300 nM
IC50 [2, 3]: > 300 nM
Structure (SMILES): Cc1cc(C)c(-c2cc(COCC3(c4ccccc4)CCNCC3)cc(C(F)(F)F)c2)c(C)c1

IC50 ([1]; Table 1): 0.01 to 100 nM
IC50 [2, 3]: > 300 nM
Structure (SMILES): COc1ccc(OC)c(-c2cc(COCC3(c4ccccc4)CCNCC3)cc(C(F)(F)F)c2)c1

IC50 ([1]; Table 1): 0.01 to 100 nM
IC50 [2, 3]: 0.01 to 100 nM
Structure (SMILES): N#Cc1cccc(-c2cc(COCC3(c4ccccc4)CCNCC3)cc(C(F)(F)F)c2)c1

IC50 ([1]; Table 1): 0.01 to 100 nM
IC50 [2, 3]: 0.01 to 100 nM
Structure (SMILES): COc1cccc(OC)c1-c1cc(COCC2(c3ccccc3)CCNCC2)cc(C(F)(F)F)c1

IC50 ([1]; Table 1): 0.01 to 100 nM
IC50 [2, 3]: 0.01 to 100 nM
Structure (SMILES): Fc1ccc(-c2cc(COCC3(c4ccccc4)CCNCC3)cc(C(F)(F)F)c2)c(F)c1

IC50 ([1]; Table 1): 0.01 to 100 nM
IC50 [2, 3]: > 300 nM
Structure (SMILES): Cn1nc(C(F)(F)F)cc1-c1cc(COCC2(c3ccccc3)CCNCC2)cc(C(F)(F)F)c1

IC50 ([1]; Table 1): 0.01 to 100 nM
IC50 [2, 3]: 0.01 to 100 nM
Structure (SMILES): Cc1ccc(-c2cc(COCC3(c4ccccc4)CCNCC3)cc(C(F)(F)F)c2)s1

IC50 ([1]; Table 1): 0.01 to 100 nM
IC50 [2, 3]: 100 to 300 nM
Structure (SMILES): Cc1nnnn1-c1cc(COCC2(c3ccccc3)CCNCC2)cc(C(F)(F)F)c1

IC50 ([1]; Table 1): 0.01 to 100 nM
IC50 [2, 3]: 0.01 to 100 nM
Structure (SMILES): COc1ccc(-n2nnnc2C)cc1COCC1(c2ccccc2)CCNCC1

IC50 ([1]; Table 1): 0.01 to 100 nM
IC50 [2, 3]: > 300 nM
Structure (SMILES): COc1ccc(-c2ccncc2)cc1COCC1(c2ccccc2)CCNCC1

More lines, now with the values behind:

Structure (SMILES): FC(F)(F)c1cc(COCC2(c3ccccc3)CCNCC2)cc(-c2cccc(-c3ccccc3)c2)c1
IC50 ([1]; Table 1): 100 to 300 nM
IC50 [2, 3]: 100 to 300 nM

Structure (SMILES): COc1ccc(Cl)cc1-c1cc(COCC2(c3ccccc3)CCNCC2)cc(C(F)(F)F)c1
IC50 ([1]; Table 1): 0.01 to 100 nM
IC50 [2, 3]: > 300 nM

Structure (SMILES): FC(F)(F)c1cc(COCC2(c3ccccc3)CCNCC2)cc(-c2ccccn2)c1
IC50 ([1]; Table 1): 0.01 to 100 nM
IC50 [2, 3]: 0.01 to 100 nM

Structure (SMILES): FC(F)(F)c1cc(COCC2(c3ccccc3)CCNCC2)cc(-c2ccco2)c1
IC50 ([1]; Table 1): 0.01 to 100 nM
IC50 [2, 3]: 0.01 to 100 nM

Structure (SMILES): FC(F)(F)c1cc(COCC2(c3ccccc3)CCNCC2)cc(-c2nccs2)c1
IC50 ([1]; Table 1): 0.01 to 100 nM
IC50 [2, 3]: 0.01 to 100 nM

Structure (SMILES): FC(F)(F)c1cc(COCC2(c3ccccc3)CCNCC2)cc(-c2ncccn2)c1
IC50 ([1]; Table 1): 0.01 to 100 nM
IC50 [2, 3]: 100 to 300 nM

Structure (SMILES): Cn1cncc1-c1cc(COCC2(c3ccccc3)CCNCC2)cc(C(F)(F)F)c1
IC50 ([1]; Table 1): 0.01 to 100 nM
IC50 [2, 3]: 100 to 300 nM

Structure (SMILES): FC(F)(F)c1cc(COCC2(c3ccccc3)CCNCC2)cc(-c2ccccc2)c1
IC50 ([1]; Table 1): 0.01 to 100 nM
IC50 [2, 3]: 0.01 to 100 nM

Structure (SMILES): FC(F)(F)c1cc(COCC2(c3ccccc3)CCNCC2)cc(-n2nnnc2C(F)(F)F)c1
IC50 ([1]; Table 1): 0.01 to 100 nM
IC50 [2, 3]: > 300 nM

Structure (SMILES): COc1ccc(-c2nnn(C)n2)cc1COCC1(c2ccccc2)CCNCC1
IC50 ([1]; Table 1): 100 to 300 nM
IC50 [2, 3]: > 300 nM

Structure (SMILES): FC(F)(F)c1cc(COCC2(c3ccccc3)CCNCC2)cc(-c2nnn[nH]2)c1
IC50 ([1]; Table 1): 0.01 to 100 nM
IC50 [2, 3]: 100 to 300 nM

Structure (SMILES): Cn1nnc(-c2cc(COCC3(c4ccccc4)CCNCC3)cc(C(F)(F)F)c2)n1
IC50 ([1]; Table 1): 0.01 to 100 nM
IC50 [2, 3]: 0.01 to 100 nM

Structure (SMILES): Cn1nnnc1-c1cc(COCC2(c3ccccc3)CCNCC2)cc(C(F)(F)F)c1
IC50 ([1]; Table 1): 0.01 to 100 nM
IC50 [2, 3]: 0.01 to 100 nM

Structure (SMILES): CC(C)N1CCC(COCc2cc(-c3ccc(C#N)cc3)cc(C(F)(F)F)c2)(c2ccccc2)CC1
IC50 ([1]; Table 2): > 300 nM
IC50 [2]: 0.01 to 100 nM
